Data taken from article PMC10869683, “Structure of recombinant formate dehydrogenase from Methylobacterium extorquens (MeFDH1)” (Scientific Reports, 2024).

Tests used:
[1] = biological target: T1, recombinant MeFDH1 (alpha/beta heterodimer), MeFDH1-β FMN / diaphorase site (Methylorubrum extorquens, UniProt C5ATT6); assay: cryo-EM structure, […] Å; assay type: binding; conditions: FMN site at the center of the beta subunit
T1 construct: gene fdh1B; same complex as P1, site in beta subunit; C-terminal His6 on alpha; expressed in M. extorquens AM1 fdh1 knockout; heterodimer ~169 kDa; with Formate dehydrogenase subunit alpha (tungsten-containing formate dehydrogenase alpha subunit)

[2] = biological target: T1, recombinant MeFDH1 (alpha/beta heterodimer), MeFDH1-β FMN / diaphorase site; assay: formate oxidation coupled to NAD+ reduction, A340; assay type: biochemical; conditions: 30 mM potassium formate, 0.5 mM NAD+, 50 mM MOPS, 30 °C; pH not given; site in beta inferred by homology
[3] = biological target: T2, recombinant MeFDH1 (alpha/beta heterodimer), MeFDH1-α active site (Methylorubrum extorquens, UniProt C5ATT7); conditions: 30 mM potassium formate, 0.5 mM NAD+, 50 mM MOPS, 30 °C; pH not given
T2 construct: gene fdh1A
T2 sequence (C5ATT7 1-989): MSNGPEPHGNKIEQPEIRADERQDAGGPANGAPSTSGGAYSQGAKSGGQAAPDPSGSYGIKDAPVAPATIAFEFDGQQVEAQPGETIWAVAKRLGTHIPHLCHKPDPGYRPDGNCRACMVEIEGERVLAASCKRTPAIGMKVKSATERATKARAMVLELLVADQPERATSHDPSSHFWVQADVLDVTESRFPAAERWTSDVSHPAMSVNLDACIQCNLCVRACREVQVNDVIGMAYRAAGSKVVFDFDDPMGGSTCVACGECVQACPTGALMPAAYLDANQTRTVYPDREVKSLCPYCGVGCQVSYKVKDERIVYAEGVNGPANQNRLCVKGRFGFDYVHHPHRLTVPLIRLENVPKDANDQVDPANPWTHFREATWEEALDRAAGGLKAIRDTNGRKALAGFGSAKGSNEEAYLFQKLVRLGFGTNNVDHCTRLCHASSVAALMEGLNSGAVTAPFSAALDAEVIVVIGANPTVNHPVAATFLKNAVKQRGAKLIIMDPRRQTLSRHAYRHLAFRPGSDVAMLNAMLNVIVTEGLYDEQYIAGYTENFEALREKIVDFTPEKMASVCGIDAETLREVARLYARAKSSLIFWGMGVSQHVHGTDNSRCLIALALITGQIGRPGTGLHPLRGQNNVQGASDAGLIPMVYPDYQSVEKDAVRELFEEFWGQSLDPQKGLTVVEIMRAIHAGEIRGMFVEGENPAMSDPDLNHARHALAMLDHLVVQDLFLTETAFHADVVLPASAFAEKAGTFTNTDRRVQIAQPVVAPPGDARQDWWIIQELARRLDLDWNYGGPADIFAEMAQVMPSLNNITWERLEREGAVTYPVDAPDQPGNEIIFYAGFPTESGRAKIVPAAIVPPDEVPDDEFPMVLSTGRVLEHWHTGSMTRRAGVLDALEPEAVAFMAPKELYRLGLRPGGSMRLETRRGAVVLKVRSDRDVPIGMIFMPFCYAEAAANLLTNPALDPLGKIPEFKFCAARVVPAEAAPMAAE
T2 sequence (C5ATT6 1-572 partner): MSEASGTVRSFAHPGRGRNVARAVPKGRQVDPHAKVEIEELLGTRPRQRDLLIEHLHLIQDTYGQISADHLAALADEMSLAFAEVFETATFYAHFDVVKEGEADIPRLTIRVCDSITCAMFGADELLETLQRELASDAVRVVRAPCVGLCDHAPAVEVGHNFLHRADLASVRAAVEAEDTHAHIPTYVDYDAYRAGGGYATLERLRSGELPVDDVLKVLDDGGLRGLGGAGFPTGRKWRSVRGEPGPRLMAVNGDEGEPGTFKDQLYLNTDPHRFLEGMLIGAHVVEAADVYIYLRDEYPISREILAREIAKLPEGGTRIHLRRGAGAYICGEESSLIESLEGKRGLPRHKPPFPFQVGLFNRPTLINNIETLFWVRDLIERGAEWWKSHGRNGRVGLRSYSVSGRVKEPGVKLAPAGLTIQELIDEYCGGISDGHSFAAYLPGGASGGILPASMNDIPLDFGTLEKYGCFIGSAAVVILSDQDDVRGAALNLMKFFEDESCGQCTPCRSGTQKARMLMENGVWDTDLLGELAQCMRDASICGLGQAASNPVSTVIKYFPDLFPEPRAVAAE

For `Cc1cc2nc3c(=O)[nH]c(=O)nc-3n(C[C@H](O)[C@H](O)[C@H](O)COP(=O)(O)O)c2cc1C` [FMN], the “cryo-EM structure, 2.8 Å” value [1] was “FMN is coordinated at the center of the MeFDH1-β subunit”.
`NC(=O)c1ccc[n+]([C@@H]2O[C@H](COP(=O)(O)OP(=O)(O)OC[C@H]3O[C@@H](n4cnc5c(N)ncnc54)[C@H](O)[C@@H]3O)[C@@H](O)[C@H]2O)c1` [NAD^+] was tested, and the “formate oxidation coupled to NAD+ reduction, A340” value [2] was “measuring its formate oxidation reaction coupled with NAD^+ reduction”.
In the case of `O=CO` [formate], the “formate oxidation coupled to NAD+ reduction, A340” value [3] is reported as “measuring its formate oxidation reaction coupled with NAD^+ reduction”.
